Assay results as given in patent US20230346743A1, “COMBINATION CANCER THERAPIES” (The Board of Regents of the University of Oklahoma, priority 2018, published 2023).

Experiments:
[1] = Toxicity in the MESOV mouse model (body weight, ascites, kidney and liver histology); type: in vivo; settings: mouse, in vivo, ip
Method: Four-week-old female athymic nude mice (NCr-Foxn1^nu) were obtained from Taconic Biosciences under an approved Institutional Animal Care and Use Committee (IACUC) protocol. Mice were acclimatized for two weeks, fed with a standard diet and ear tagged during the acclimatization period. The timing to tumor development after intraperitoneal injection with various amounts of MESOV cells was determined in a pilot study prior. In the intervention experiment, 6-week-old mice were injected with 20 million MESOV human ovarian cancer cells in their intraperitoneal region. Drug treatment was initiated 4 weeks after the injection of cancer cells. Mice were randomized to four treatment groups before the start of treatment based on their body weight. There was no significant (one-way ANOVA, p >0.999) difference in body weight between groups at the start of treatment. Twelve mice were allocated to each group based on the power analysis performed while designing experiment. The sample size was determined to provide over 80% power to detect a 915 mm^3 difference in tumor volume between PRIMA-1^MET treatment alone and the drug combination treatment using a two-sided 0.05 level t-test. SHetA2 was administered by gavage at 60 mg/kg in 30% Kolliphor HS15 (Sigma). Controls were gavaged with Kolliphor HS15 (30% in water). PRIMA-1^MET (10 mg/kg) was dissolved in phosphate buffered saline and injected into the peritoneum of mice every other day. Initially SHetA2 dosing was administered every day for two weeks in SHetA2 alone and drug combination groups, and then switched to every other day for the next three weeks due to the stress caused to the mice by daily gavage. Oral gavaging was performed with sterile disposable plastic feeding tubes 20 ga × 38 mm (Instech Laboratories, Inc., Plymouth Meeting, PA, USA). Three mice in the drug combination group died after two weeks of drug treatment due to gavaging incidents. Body weights were recorded and animal health was monitored weekly. After the end of drug intervention period, all mice were euthanized by CO2 asphyxiation followed by exsanguination, their tumors and other vital organs were collected for further analysis. After measuring the total tumor weight, a portion of the tumors were snap frozen in liquid nitrogen and another portion was formalin fixed. The formalin fixed tissue samples were paraffin embedded, sectioned and stained with hematoxylin and eosins for histology studies. An experienced pathologist reviewed blinded histology slides for kidney and liver toxicity.

Cervical Cancer = assay: Dose reduction index at various fold effects in cervical cancer; type: cell-based, human; settings: cell line not named
Description: Combination Indices (CI's) were derived to determine the level of synergy using the Chow and Talalay method. […] The Dose Reduction Indices (DRIs) were derived to determine the level of reduction for one drug that could be allowed by addition of the second drug at various fold effects (Fas) of the combination treatment (Table 16).

p53 [2] = assay: p53 cellular localization in hFTSECs; type: cell-based, human; settings: 24 h
Method: (§1) Cytoplasmic and nuclear protein fractions were isolated from cultures using NE-PER Nuclear and Cytoplasmic Extraction Reagents (ThermoFisher, Waltham, MA, USA) and the Mitochondria/Cytosol Fractionation Kit (ThermoFisher, Waltham, MA, USA) and protein concentrations determined with BCA reagent (ThermoFisher, Waltham, MA, USA).
(§2) Proteins were extracted from cell cultures using M-PER mammalian protein extraction reagent (ThermoFisher, Waltham, MA, USA) and volumes corresponding to 30 µg determined with BCA reagent (ThermoFisher, Waltham, MA, USA) were electrophoresed into a SDS-PAGE gel and transferred to PVDF membranes. Membranes were blocked (5% dry skim milk powder in TBST buffer) for at least 1 h or overnight, washed thrice with TBST and then incubated with primary antibody: p53 DO-1, β-actin, histone H3, GAPDH (Santa Cruz Biotechnology, Dallas, TX, USA) and mortalin, Tom20, V5 tag antibodies, p21, PARP, SLC7A11, caspase 3 (Cell Signaling Technology, Danvers, MA, USA) for at least 1 h or overnight. After three washes, membranes were incubated with anti-mouse HRP conjugated (Santa Cruz Biotechnology, Dallas, TX, USA) or anti-Rabbit HRP conjugated (Cell Signaling Technology, Danvers, MA, USA) for 40 min. Membranes then were washed and developed with ECL reagents (BioRad, Hercules, CA, USA). Bands were imaged and quantified (ChemiDoc imaging system with Image Lab Software/BioRad). […]

p53 [3] = assay: p53 cellular localization (immunofluorescence, Western blots of fractions) in ovarian cancer cell lines; type: cell-based, human; settings: A2780 and OV90 ovarian cancer cell lines
Method: as §1, §2

TP21 gene = assay: qRT-PCR of TP21 in SKOV3 cells; type: cell-based, human; settings: SKOV3 parental (p53 null) and R273H m-p53 cells; SHetA2 10 µM, PRIMA-1 20 µM, 16 h
NCI 60-cell line panel = settings: cited from earlier work

For CC1(C)CC(C)(C)c2cc(NC(=S)Nc3ccc([N+](=O)[O-])cc3)ccc2S1 [SHetA2], the “Effects on body weight or ascites (abdominal size)” value [1] was “no significant effects on body weight or ascites”, the “Kidney or liver toxicity (H & E histology)” value [1] was “did not cause kidney or liver toxicity” and the “SHetA2 Dose” value (Cervical Cancer; Fold Effect (Fa) 0.05) was 5.44. The “SHetA2 Dose” value (Cervical Cancer; Fold Effect (Fa) 0.75) was 8.23, the “SHetA2 Dose” value (Cervical Cancer; Fold Effect (Fa) 0.90) was 12.43 and the “SHetA2 Dose” value (Cervical Cancer; Fold Effect (Fa) 0.95) was 16.47. The p53 cellular localization (p53 [2]) was “minimal effects on p53 cellular localization”, the “p53 in nuclei (immunofluorescent imaging)” value (p53 [3]) was “dose-dependent elevation of both wild type and mutant p53 in nuclei” and the “TP21 transcription (qRT-PCR)” value (TP21 gene) was “induced TP21 transcription”. The “Activity against cancer cell lines” value (NCI 60-cell line panel) was “active against all cancers present in the NCI 60-cell line panel”.
